Test system: AMV (avian myeloblastosis virus) reverse transcriptase
Test: AMV reverse transcriptase inhibition ([3H]dTTP incorporation)
Format: biochemical
Details: 1 Inhibition unit = activity which inhibits 1 unit of reverse transcriptase activity to 50%
Protocol: 1 unit of AMV (avian myeloblastosis virus) reverse transcriptase was mixed with 50 μl of a mixture (50 mM tris hydrochloride, pH 8.4, 2 mM dithiothreitol, 100 mM KCl, 10 mM MgCl2, 0.1% triton X-100, 50 μg poly (rA)-oligo (dT)/ml, 1.25 μCi [^3 H] dTTP (57 Ci/mmol)) and with various concentration of various sulfated polysaccharides.
The reaction mixtures were incubated and stopped by the addition of 5% trichloroacetic acid. Precipitates were collected on glass fiber filters and their radio activities were determined by a liquid scintilation counter.
1 Inhibition unit is defined as an activity which inhibits 1 unit of reverse transcriptase activity to 50%.

Substance | Inhibition Unit/mg [Inhibition Unit/mg]
Chondroitin sulfate | 30
Dermatan sulfate | 210
Heparan sulfate | 50
Heparin | 830
Karatan sulfate | 30
l-Carrageenan | 35810
κ-Carrageenan | 30200
λ-Carrageenan | 68320

— patent publication US5878747A, “Condom coated with acidic polysaccharides” (Fuji Latex Co., Ltd., priority 1993, dated 1999)
